Molecules are shown by their SMILES.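 All cell lines were grown in 96-well plates and treated with compound for 48 hours. Definition used: TGI = concentration required for complete inhibition of growth.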 Bounds are passed on as bounds.

Common to all, as to assay: DTP human tumour cell line panel, 48 h
Assay [1] deals with COLO 205 colon.
The test system of assay [2] is CAKI-1 renal.
The test system of assay [3] is UACC-257 melanoma.
For assay [4], the system named is OVCAR-8 ovarian.
For assay [5], the system named is HT29 colon.
Assay [6] deals with SR leukemia.
The subject of assay [7] is MDA-MB-231 breast.
The test system of assay [8] is NCI/ADR-RES ovarian.
The test system of assay [9] is NCI-H522 lung.

For orientation: TGI means the concentration at which net growth stops. Turning to `COC(=O)C1=C(O)C(C(=O)OC)[C@]2(O)[C@H](C(=O)OC)[C@H]1C[C@@H](c1cccc(OC)c1)[C@H]2C(=O)OC` (stereo partly specified), the concentration for total growth inhibition (TGI) in assay [1] is over 100 µM; in assay [2], 73.3 µM; in [3] it was over 100 µM; in assay [4], over 100 µM; in assay [5], over 100 µM; in [6], over 100 µM. Moreover, the TGI in assay [7] was 78.3 µM; in [8] it was over 100 µM; in [9] it was 33.3 µM.
Take `O=C1c2cc([N+](=O)[O-])cnc2S(=O)(=O)N1c1ccc(Br)cc1`: the TGI in assay [1], in assay [2], in assay [3], in assay [4], in [5] and in assay [6] was over 100 µM throughout. Moreover, the TGI in assay [7], in [8] and in assay [9] was over 100 µM throughout.
`O=C(O)C(F)(F)C(F)(F)C(F)(F)C(F)(F)C(=O)O`: the TGI in assay [1], in assay [2], in [3], in [4], in assay [5] and in assay [6] was over 100 µM throughout. Further, the TGI in assay [7], in assay [8] and in assay [9] was over 100 µM each time.
On to `CCN(CC)c1ccc2c(c1)Oc1ccc(N(C(C)=O)c3ccccc3)cc1C21OC(=O)c2ccccc21` (stereo unspecified), for which the concentration for total growth inhibition (TGI) in assay [1], in assay [2], in assay [3], in assay [4], in [5] and in assay [6] was over 100 µM each time. For the same compound, the concentration for total growth inhibition (TGI) in assay [7], in [8] and in assay [9] was over 100 µM each time.
On to `O=C1OC(C2Cc3ccccc3C2=O)c2ccccc21` (stereo unspecified), for which the TGI in assay [1] is over 100 µM; in assay [2] it was over 100 µM; in assay [3], over 100 µM; in assay [4], over 100 µM; in assay [5] it was 60.5 µM; in [6], over 100 µM. Further, the TGI in assay [7], in [8] and in assay [9] was over 100 µM in each case.
Regarding `CSc1nc2c(c(=O)n1C)N=C(c1ccc(Cl)cc1)CC(c1ccccc1)N2` (stereo unspecified), the TGI is 39.2 µM in [1]; 46.4 µM in [2]; 54.8 µM in assay [3]; over 100 µM in assay [4]; 31.6 µM in assay [5]; over 100 µM in assay [6]. Besides, the values for the TGI in [7], in assay [8] and in [9] were 27.3 µM, 74.1 µM and 47.9 µM, respectively.
For the compound `CC(/C=N/N(C)C1=NCCCCN1)=N/N(C)C1=NCCCCN1`, the TGI in assay [1], in [2], in [3], in [4], in assay [5] and in [6] was over 100 µM in each case. In addition, the TGI in [7], in assay [8] and in assay [9] was over 100 µM each time.
`CC(=O)[C@H]1CC[C@H]2[C@@H]3CCC4=CC(=O)CC[C@]4(C)[C@H]3CC[C@]12C`: the TGI in assay [1] is 29.5 µM; in assay [2] it was over 100 µM; in assay [3], 27.2 µM; in assay [4], 47.3 µM; in assay [5], 29.7 µM; in assay [6], over 100 µM. For the same compound, the TGI in assay [7] was 33.2 µM; in assay [8], 31.3 µM; in assay [9] it was 31 µM.
For the compound `CC(C)=NNc1cnnc2ccc([N+](=O)[O-])cc12`, the TGI in [1], in [2], in [3], in assay [4], in [5] and in assay [6] was over 100 µM each time. Also, the TGI in [7] is over 100 µM; in [8], over 100 µM; in assay [9], 52 µM.
For the compound `O=C(O)CCC(C(=O)O)N1C(=O)c2ccccc2C1=O` (stereo unspecified), the TGI in assay [1], in assay [2], in [3], in assay [4], in [5] and in assay [6] was over 100 µM in each case. The TGI in assay [7], in assay [8] and in assay [9] was over 100 µM throughout.
Regarding `O=C(O)CS(=O)c1ccc2c3c(cccc13)C(=O)c1ccccc1-2` (stereo unspecified), the TGI in [1], in [2], in assay [3], in assay [4], in assay [5] and in [6] was over 100 µM throughout. Besides, the TGI in [7], in [8] and in [9] was over 100 µM in each case.
As to `O=c1[nH]nc(-c2ccc([N+](=O)[O-])cc2)n1/N=C/c1ccc([N+](=O)[O-])cc1`, the TGI in assay [1], in assay [2], in assay [3], in assay [4], in assay [5] and in assay [6] was over 100 µM throughout. In addition, the TGI in [7], in [8] and in [9] was over 100 µM each time.
In the case of `CCOP(=O)(CC1CC(O)(CNc2cc(Cl)nc(N)n2)C1)OCC` (stereo unspecified), the TGI in assay [1], in [2], in [3], in assay [4], in assay [5] and in [6] was over 100 µM each time. The TGI in [7], in assay [8] and in assay [9] was over 100 µM each time.
`CCSCC(=O)N1CCc2c([nH]c3ccccc23)C1=O`: the TGI in assay [1], in [2], in assay [3], in assay [4], in assay [5] and in [6] was over 100 µM throughout. Also, the TGI in assay [7], in assay [8] and in [9] was over 100 µM throughout.

(Values after PubChem BioAssay (NCI).)
